Article PMC4085797, “Synthetic Inositol Phosphate Analogs Reveal that PPIP5K2 Has a Surface-Mounted Substrate Capture Site that Is a Target for Drug Discovery” (Chemistry & Biology, 2014)
Changes are numbered by the printed parent chain. “Also recorded” adds a separate entry of the source.

What was measured:
[1] = target: T1, PPIP5K2^KD (kinase domain of human PPIP5K2) (Homo sapiens, UniProt O43314); assay: ATPase activity of PPIP5K2KD (Pi release); type: biochemical; conditions: for stimulation of ATPase activity (in words): wild-type enzyme; for EC50: dose-response, key of Figure 4A, n = 3, read-out: EC50, stimulation of ATPase activities
T1 construct: The kinase domain of human PPIP5K2 (PPIP5K2^KD; residues 1–366); made in house
T1 sequence (O43314 1-366): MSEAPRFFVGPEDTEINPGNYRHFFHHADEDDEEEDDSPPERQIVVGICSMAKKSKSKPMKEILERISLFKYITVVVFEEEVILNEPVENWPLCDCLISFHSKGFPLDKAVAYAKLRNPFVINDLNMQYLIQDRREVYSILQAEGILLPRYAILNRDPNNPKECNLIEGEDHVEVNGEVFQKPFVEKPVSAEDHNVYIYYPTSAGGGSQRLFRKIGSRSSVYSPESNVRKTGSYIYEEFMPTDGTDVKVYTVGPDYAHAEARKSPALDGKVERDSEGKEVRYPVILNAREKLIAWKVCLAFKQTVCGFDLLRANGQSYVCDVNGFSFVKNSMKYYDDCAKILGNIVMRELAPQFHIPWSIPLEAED
Description: (§1) The initial InsP6 concentration was either 500 nM, 70 nM, or 40 nM. Various concentrations of 2,5-di-O-Bn-InsP4 were present as indicated. Radioactivity was assessed using an in-line Flo1 detector. The ADP-driven dephosphorylation of 100 nM 1,5-[PP]2-InsP4 by PPIP5K2^KD was usually determined by a luminescence-based assay of ATP accumulation ([Riley et al., 2012; Weaver et al., 2013]). The IC50 values were determined using GraphPad Prism v6.02 (n ≥ 3). In some experiments, 1,5-[PP]2-[^3H]InsP4 dephosphorylation by PPIP5K2^KD was assayed in 50 μl buffer containing 50 mM KCl, 20 mM HEPES pH 7.0, 7 mM MgSO4, 5 mM ADP, 1 mM EDTA. Reactions were then quenched, neutralized, and analyzed with HPLC using a Partisphere SAX column ([Weaver et al., 2013]); 1 ml fractions were collected for liquid scintillation spectrometry. The ATPase activity of PPIP5K2^KD (10–270 μg/ml) was assayed from Pi release following incubation at 37°C for 120–180 min in 20 μl reaction mixtures containing 20 mM Tris/HCl, pH 7.5, 10 mM ATP, 100 mM KCl, 0.1 mM EDTA, and 13 mM MgCl2.

[2] = target: T1, PPIP5K2^KD (kinase domain of human PPIP5K2); assay: Reverse-kinase assay: ADP-driven dephosphorylation of 1,5-[PP]2-InsP4, luminescence-based assay of ATP accumulation; type: biochemical; conditions: for IC50: 100 nM [PP]2-InsP4, key of Figure 4B, n = 3, read-out: IC50, inhibition of ADP-driven dephosphorylation of [PP]2-InsP4; for inhibition of [PP]2-InsP4 metabolism (in words): 100 nM 1,5-[PP]2-InsP4, Figure 4B
Description: The six compounds that were selected for the dose-response curves in the assays of ATP hydrolysis (Figure 4A) were now investigated for their effects upon diphosphoinositol polyphosphate metabolism by PPIP5K2^KD (Figure 4B). We used a high-throughput reverse-kinase assay that records ATP generated from ADP during the dephosphorylation of 100 nM 1,5-[PP]2-InsP4 ([Riley et al., 2012; Weaver et al., 2013]). Each of the tested analogs inhibited [PP]2-InsP4 metabolism by PPIP5K2^KD (Figure 4B). […] However, the inhibition by 2,5-di-O-Bn-InsP4 (10) was more unexpected because due to its bulk, and its less negative charge compared to physiological substrates, we predict it to be a poor ligand for the active site of the highly specific PPIP5K2^KD ([Wang et al., 2012]). Nevertheless, its ability to inhibit reverse-kinase activity was directly confirmed by high-performance liquid chromatography (HPLC) analysis of [PP]2-[^3H]InsP4 dephosphorylation (Figures S1A–S1C available online).
as §1

PPIP5K2^KD E192G mutant = target: T2, PPIP5K2^KD E192G mutant (Homo sapiens, UniProt O43314, E192G); assay: ATPase activity of E192G mutant; type: biochemical
T2 construct: The kinase domain of human PPIP5K2 (PPIP5K2^KD; residues 1–366); made in house
T2 sequence (O43314 1-366 E192G): T1 sequence (O43314 1-366) with E192G
Description: as §1
Protein Expression, Purification, Crystallization and Structure Determination […]
(§2) The structure was further manually rebuilt with COOT and refined with PHENIX and
(§3) REFMAC from the CCP4 package. Ligand topology and parameter files were prepared using
(§4) the PRODRG server. The molecular graphics representations were prepared with the program
(§5) PyMol (Schrödinger, LLC). The 2D ligand-protein interaction diagrams were generated by
(§6) LigPlot+. Atomic coordinates and structure factors have been deposited with the Protein Data
(§7) Bank with accession codes: 4NZM, 4NZN, 4NZO.
(§8) Mutants were generated using a site-directed mutagenesis kit (Stratagene). Pairs of complementary
primers were designed as shown below, with mutagenic primers underlined (only 5’ primers are
All mutated constructs were sequenced. Mutant proteins were expressed and purified as for wild-

PPIP5K2^KD E192Q mutant = target: T3, PPIP5K2^KD E192Q mutant (Homo sapiens, UniProt O43314, E192Q); assay: ATPase activity of E192Q mutant; type: biochemical; conditions: 25 μM, Figure 7E
T3 construct: The kinase domain of human PPIP5K2 (PPIP5K2^KD; residues 1–366); made in house
T3 sequence (O43314 1-366 E192Q): T1 sequence (O43314 1-366) with E192Q
Description: as §1
Protein Expression, Purification, Crystallization and Structure Determination
Full-length human IP6K2, the kinase domain of human PPIP5K2 (PPIP5K2KD; residues 1-
366), and the N-terminally truncated domain used for the crystallography studies (residues
41-366) were all sub-cloned, expressed and purified as before (Wang et al., 2012; Weaver et
al., 2013). […]
as §2, §3, §4, §5, §6, §7, §8
primers were designed as shown below, with mutagenic primers underlined (only 5’ primers are […]

[3] = target: T1, PPIP5K2^KD (kinase domain of human PPIP5K2); set-up: method as in Weaver et al., 2013; conditions: 25 μM; ref Weaver et al., 2013; cited from earlier work
human PPIP5K2^KD = target: T4, human PPIP5K2^KD (Homo sapiens, UniProt O43314); set-up: method as in Weaver et al., 2013; conditions: ref Weaver et al., 2013; cited from earlier work
T4 construct: The kinase domain of human PPIP5K2 (PPIP5K2^KD; residues 1–366); made in house
T4 sequence (O43314 1-366): T1 sequence (O43314 1-366)

human IP6K2 = target: T5, human IP6K2 (Homo sapiens, UniProt Q9UHH9); set-up: method as in Saiardi et al., 2000; conditions: ref Saiardi et al., 2000; cited from earlier work
T5 construct: Full-length human IP6K2, the kinase domain of human PPIP5K2; made in house
T5 sequence (Q9UHH9 1-426): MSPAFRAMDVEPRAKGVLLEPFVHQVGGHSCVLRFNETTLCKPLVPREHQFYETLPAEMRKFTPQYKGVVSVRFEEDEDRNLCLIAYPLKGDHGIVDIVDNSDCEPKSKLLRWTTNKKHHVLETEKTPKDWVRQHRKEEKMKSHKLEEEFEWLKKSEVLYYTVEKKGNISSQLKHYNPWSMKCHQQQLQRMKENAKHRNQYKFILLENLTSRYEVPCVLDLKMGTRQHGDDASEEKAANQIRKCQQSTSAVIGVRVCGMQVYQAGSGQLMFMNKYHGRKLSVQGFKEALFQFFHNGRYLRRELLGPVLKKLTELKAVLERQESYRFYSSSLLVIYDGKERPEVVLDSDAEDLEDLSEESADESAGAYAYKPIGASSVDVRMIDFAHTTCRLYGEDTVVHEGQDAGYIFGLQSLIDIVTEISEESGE

PPIP5K2^KD R213A mutant = target: T6, PPIP5K2^KD R213A mutant (Homo sapiens, UniProt O43314, R213A); set-up: method as in Weaver et al., 2013; conditions: R213A mutation; ref Weaver et al., 2013; cited from earlier work
T6 construct: The kinase domain of human PPIP5K2 (PPIP5K2^KD; residues 1–366); made in house
T6 sequence (O43314 1-366 R213A): T1 sequence (O43314 1-366) with R213A

Compound | stimulation of ATPase activity (in words) ([1]; 25 μM, Figure 2) | EC50 [1] [µM] | IC50 [2] [µM] | also measured
NCCO[C@H]1[C@@H](OP(=O)(O)O)[C@H](OP(=O)(O)O)[C@@H](OP(=O)(O)O)[C@H](OP(=O)(O)O)[C@H]1OP(=O)(O)O [compound 6, 2-O-(2-aminoethyl)-InsP5] | did not stimulate ATPase activity | – | – | –
O=C(CP(=O)(O)O)O[C@@H]1[C@@H](OP(=O)(O)O)[C@H](OP(=O)(O)O)[C@H](O)[C@H](OP(=O)(O)O)[C@H]1OP(=O)(O)O [compound 3, 5-PA-InsP4] | dramatically reduced | – | – | –
O=C(O[C@H]1[C@@H](OP(=O)(O)O)[C@H](OP(=O)(O)O)[C@@H](OP(=O)(O)O)[C@H](OP(=O)(O)O)[C@H]1OP(=O)(O)O)c1ccccc1 [compound 4, 2-O-benzoyl-InsP5] | only a minimal reduction in ATPase-stimulating activity | – | – | –
O=P(O)(O)O[C@@H]1[C@H](OCc2ccccc2)[C@H](OP(=O)(O)O)[C@@H](OP(=O)(O)O)[C@H](OP(=O)(O)OP(=O)(O)O)[C@H]1OP(=O)(O)O [compound 8, 2-O-Bn-5-PP-InsP4] | – | 2.6 | 0.5 | more effective at stimulating ATPase activity than 2-O-Bn-5-PA-IP4 (2) ([1]; 25 μM, Figure 2): 20%; rate of ligand-stimulated ATPase activity vs wild-type (in words) (PPIP5K2^KD E192G mutant): neither of these particular mutations altered the rate; rate of ligand-stimulated ATPase activity vs wild-type (in words) (PPIP5K2^KD E192Q mutant): neither of these particular mutations altered the rate
O=C(CP(=O)(O)O)O[C@@H]1[C@@H](OP(=O)(O)O)[C@H](OP(=O)(O)O)[C@H](OP(=O)(O)O)[C@H](OP(=O)(O)O)[C@H]1OP(=O)(O)O [compound 1, 5-O-α-phosphonoacetyl-myo-inositol 1,2,3,4,6-pentakisphosphate] | – | 1.2 | 0.14 | stimulation of ATP hydrolysis ([1]; 25 μM analog): 5 fold; inhibition of [PP]2-InsP4 metabolism (in words) [2]: most potent inhibitor
CCCC(=O)O[C@H]1[C@@H](OP(=O)(O)O)[C@H](OP(=O)(O)O)[C@@H](OP(=O)(O)O)[C@H](OP(=O)(O)O)[C@H]1OP(=O)(O)O [compound 5, 2-O-butanoyl-InsP5] | sharp reduction in activity | – | – | –
O=P(O)(O)O[C@@H]1[C@@H](OP(=O)(O)OP(=O)(O)O)[C@H](OP(=O)(O)O)[C@@H](OP(=O)(O)O)[C@@H](O)[C@H]1OP(=O)(O)O [compound 9, 5-PP-InsP4] | about half the rate shown by 2-O-Bn-5-PP-InsP4 (8) | 8.8 | 2.4 | –
O=P(O)(O)O[C@H]1[C@H](OP(=O)(O)O)[C@@H](OP(=O)(O)O)[C@H](OP(=O)(O)O)[C@@H](OP(=O)(O)O)[C@H]1OP(=O)(O)O [InsP6] | – | – | – | activation of substrate-stimulated ATPase activity [3]: 2- to 3 fold; affinity for InsP6 phosphorylation by PPIP5K2^KD (human PPIP5K2^KD): 0.39 µM; affinity of IP6K2 for InsP6 (human IP6K2): 430 nM; InsP6-stimulated ATPase activity (in words) (PPIP5K2^KD R213A mutant): abolished
O=P(O)(O)O[C@@H]1[C@@H](OP(=O)(O)O)[C@H](OP(=O)(O)O)[C@H](O)[C@H](OP(=O)(O)O)[C@H]1OP(=O)(O)O [Ins(1,3,4,5,6)P5] | – | – | – | activation of substrate-stimulated ATPase activity [3]: 2- to 3 fold
O=P(O)(O)O[C@@H]1[C@@H](OP(=O)(O)O)[C@H](OP(=O)(O)O)[C@H](OCc2ccccc2)[C@H](OP(=O)(O)O)[C@H]1OP(=O)(O)O [compound 7, 2-O-Bn-InsP5] | less effective than was 2-O-Bn-5-PA-InsP4; also recorded: roughly doubling the rate of ATP hydrolysis that is induced by InsP6 | 2.2 | 0.44 | less potent than 2-O-Bn-5-PA-InsP4 (2) at stimulating ATPase activity ([1]; from EC50 values, Figure 4A): 4 fold; inhibition of [PP]2-InsP4 metabolism (in words) [2]: equally efficient
